Data taken from article PMC4005005 (ChemMedChem, 2014).

Target: T1, G9a (Homo sapiens, UniProt Q96KQ7)
T1 sequence (Q96KQ7 2-1210): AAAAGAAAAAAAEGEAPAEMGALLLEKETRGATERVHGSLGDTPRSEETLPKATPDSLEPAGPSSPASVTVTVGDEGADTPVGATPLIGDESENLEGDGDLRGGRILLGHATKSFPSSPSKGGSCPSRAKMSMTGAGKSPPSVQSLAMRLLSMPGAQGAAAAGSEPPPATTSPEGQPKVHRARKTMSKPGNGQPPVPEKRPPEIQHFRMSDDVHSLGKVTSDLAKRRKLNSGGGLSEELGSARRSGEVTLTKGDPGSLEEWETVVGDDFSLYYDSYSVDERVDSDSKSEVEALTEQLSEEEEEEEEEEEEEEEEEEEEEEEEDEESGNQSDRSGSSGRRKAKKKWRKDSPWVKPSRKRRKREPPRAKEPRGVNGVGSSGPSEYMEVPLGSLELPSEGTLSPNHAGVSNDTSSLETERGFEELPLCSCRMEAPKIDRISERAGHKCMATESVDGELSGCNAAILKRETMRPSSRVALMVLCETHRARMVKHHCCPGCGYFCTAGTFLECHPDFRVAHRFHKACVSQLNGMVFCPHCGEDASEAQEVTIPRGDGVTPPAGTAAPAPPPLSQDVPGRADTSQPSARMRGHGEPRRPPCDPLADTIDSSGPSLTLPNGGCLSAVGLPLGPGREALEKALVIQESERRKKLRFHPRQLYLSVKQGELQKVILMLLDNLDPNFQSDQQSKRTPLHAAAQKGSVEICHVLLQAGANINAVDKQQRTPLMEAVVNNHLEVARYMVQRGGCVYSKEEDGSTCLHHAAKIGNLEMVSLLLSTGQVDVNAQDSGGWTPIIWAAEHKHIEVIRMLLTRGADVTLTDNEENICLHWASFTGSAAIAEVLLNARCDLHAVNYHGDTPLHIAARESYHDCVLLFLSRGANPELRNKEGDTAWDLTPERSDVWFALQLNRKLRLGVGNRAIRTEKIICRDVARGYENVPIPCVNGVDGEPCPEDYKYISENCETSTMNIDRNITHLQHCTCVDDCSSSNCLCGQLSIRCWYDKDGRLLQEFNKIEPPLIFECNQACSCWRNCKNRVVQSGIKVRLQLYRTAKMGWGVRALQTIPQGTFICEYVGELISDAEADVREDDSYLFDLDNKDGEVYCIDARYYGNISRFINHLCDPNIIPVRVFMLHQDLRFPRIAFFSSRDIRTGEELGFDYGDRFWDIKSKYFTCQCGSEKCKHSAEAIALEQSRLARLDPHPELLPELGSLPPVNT
Test: scintillation proximity assay of 3H-methyl transfer to histone peptide
Type: biochemical

COc1cc2c(NC3CCN(CCCc4cn(CCOCCOCCOCCNC(=O)CCCC[C@H]5SC[C@H]6NC(=O)N[C@H]65)nn4)CC3)nc(C3CCCCC3)nc2cc1OCCCN1CCCC1 [compound 10, UNC0965]
IC50: < 2.5 nM
